Test results as given in patent publication US6337182B1, “Method for the quantitative determination of DNA sequences” (Dade Behring Marburg GmbH, priority 1990, dated 2002).
Where “and” joins values, the source holds several entries; their conditions need not be identical. Equal entries are not always repeated.

Test system: TaqI-endonuclease site TCGA (2508-2511) of exon 3 of the c-Ha-ras gene
Assay: Detection of ethylnitrosourea induced mutations in the TaqI site of c-Ha-ras exon 3 in cultured human fibroblasts (selective PCR, plaque hybridization)
Type: cell-based
Procedure: Monolayer cultures of human foreskin fibroblasts 3229 (other cell lines of the same origin work equally well) are treated with the carcinogen ethylnitrosourea (ENU, 2mM) in DMSO or sham-treated with DMSO only and harvested 3 days later. Total DNA is extracted and digested exhaustively with BamHI yielding a 6.6 Kb fragment containing the c-Ha-ras gene. The digestion mixture is separated on a 1% agarose gel and the DNA in the region from 6.0-7.0 Kb eluted in a “Biotrap” apparatus as described in Example I. The completeness of the BamHI digestion and the recovery of the c-Ha-ras sequences from the gel are monitored by Southern-blotting with a 6.6 Kb c-Ha-ras probe. “Biotrap” purified DNA (6.0-7.0 Kb, corresponding to 25 μg BamHI digested genomic DNA) is then exhaustively digested with TaqI endonuclease and a fragment containing the TaqI site 2508-2511 (TCGA) of the c-Ha-ras gene amplified as described below and illustrated in FIG. 2. At the outset of the amplification 10 copies of an authentic “standard” sequence are added which contain the sequence ACGT at residues 2508-2511 (and a G-instead of the C residue at position 2503), but are otherwise identical to wt c-Ha-ras.
The digested DNA was amplified, utilizing a “nested primer approach” to selectively amplify only DNA containing a mutated TaqI restriction site.
1. Amplification Cycles 1-15. The cycles 1-15 were conducted with the outer primers (see FIG. 2) yielding a 237 bp fragment. Each cycle consists of a melting temperature of 81° C. (1.1 min), an annealing temperature of 55° C. (0.8 min), and an extension temperature of 65° C. (0.3 min). The initial contents of each amplification tube are as follows: 2.5 μl of “digested DNA” (i.e. TaqI digested 6.0-7.0 Kb BamHI fragment population described above); 0.75 μg of each outer primer (primers 1 and 2, see FIG. 2); 25 mM each of dATP, dCTP, dGTP and dTTP; 21% DMSO; 66.6 mM Tris-HCl, pH 8.8, 16.6 mM ammonium sulfate; 6.7 mM magnesium chloride; 10 mM 2-merc:aptoethanol, 6.7 μM EDTA, and 1.5 units Taq polymerase, in a total volume of 25 μl. To prevent evaporation during temperature cycling, an overlay of 3-4 drops of paraffin oil is added to each tube. (Note: Taq polymerase is added to the tubes after an initial melting period of 3 minutes at 92° C. Subsequently, one μl additions of a TaqI endonuclease-containing TaqI Mix are made to the appropriate amplification tubes during the annealing periods of cycles 1, 3, 5, 7 , 9, 11, 13 and 15). The TaqI mix contains 25 mM each of DATP, dCTP, dGTP and dTTP; 21% DMSO; 66.6 mM Tris-HC1, pH 8.8; 16.6 mM ammonium sulfate; 6.7 mM magnesium chloride; 10 mM 2-mercaptoethanol; 6.7 μm EDTA; 0.12 units/μl Taq polymerase and 1.2 units/μl TaqI endonuclease.
Amplification cycles 16-25 are conducted at a higher melting temprature (91° C.) and a lower DMSO concentration (12%) with the outer primers (primers 1 and 2, see FIG. 2). Each cycle consists of a melting temperature of 91° C. (0.8 min) and an annealing temperature of 57° C. (0.4 min). After the 15th cycle, the DMSO concentration is reduced to 12% by transferring 16 μl of each amplification solution to new tubes which contain 11 μl of a DMSO-free mixture consisting of 229 ng of each outer primer/11 μl; 25 mM each of dATP, dCTP, dGTP and dTTP; 66.6 mM Tris-HCl, pH 8.8; 16.6 mM ammonium sulfate; 6.7 mM magnesium chloride, 10 mM 2.-mercaptoethanol and 6.7 μM EDTA. Paraffin oil (3 drops) is added to each tube and the 16th cycle begun with an initial melting period of 3 min at 92° C., after which 1.5 units of Taq polymerase is added to each tube.
Amplification cycles 26-41 are conducted with the inner primers (primers 3 and 4, see FIG. 2), which contain “EcoRI tails” to facilitate later ligation into phage arms. With the chosen inner primers a 184 bp fragment is synthesized. In order to reduce competition between outer and inner primers, the outer primer concentration is reduced by a factor of 121 relative to the inner primer concentration. […]

[1] = mean of 4 Petri dishes, 2 mM ethylnitrosourea, human fibroblasts (3229)

Structure (SMILES): CCN(N=O)C(N)=O [ethylnitrosourea]
- copies of mutated sequence TCTA in the original DNA sample (25 μg DNA, 10 copies of standard gave 17% plaques, mutation 7%): 6 copies
- plaques containing wt sequence DNA or any of the remaining 11 possible base-pair mutations (2 mM ethylnitrosourea, human fibroblasts (3229)): No plaques were detected
- frequency of induced base-pair mutation TCGA→TCTA at sequence 2508-2511 of the human c-Ha-ras gene (2 mM, human fibroblasts 3229, estimated against 10 copies of standard sequence): ~7.5 mutations in 10^7 c-Ha-ras genes
- mutation frequency (TCGA→TCTA, 2 mM, human fibroblasts 3229, 25 μg DNA): ~7.5×10^−7 per c-Ha-ras gene
- plaques containing mutated sequence TCTA, mean [1]: 13.2
- plaques containing mutated sequence TCTA, mean share [1]: (7%)
- plaques containing mutated sequence TCTA (number of plaques per Petri dish, DNA from 3 × 10^6 human fibroblasts (3229) treated with 2 mM ethylnitrosourea, harvested 3 days later): 16 and 13 and 12
